# Molecular target: T1, ENaC (Homo sapiens, UniProt P37088+P51168+P51170)
# T1 construct: endogenous in cells; host or cells: well-differentiated human bronchial epithelial (HBE) cells at air-liquid interface
# T1 sequence (P37088 1-669): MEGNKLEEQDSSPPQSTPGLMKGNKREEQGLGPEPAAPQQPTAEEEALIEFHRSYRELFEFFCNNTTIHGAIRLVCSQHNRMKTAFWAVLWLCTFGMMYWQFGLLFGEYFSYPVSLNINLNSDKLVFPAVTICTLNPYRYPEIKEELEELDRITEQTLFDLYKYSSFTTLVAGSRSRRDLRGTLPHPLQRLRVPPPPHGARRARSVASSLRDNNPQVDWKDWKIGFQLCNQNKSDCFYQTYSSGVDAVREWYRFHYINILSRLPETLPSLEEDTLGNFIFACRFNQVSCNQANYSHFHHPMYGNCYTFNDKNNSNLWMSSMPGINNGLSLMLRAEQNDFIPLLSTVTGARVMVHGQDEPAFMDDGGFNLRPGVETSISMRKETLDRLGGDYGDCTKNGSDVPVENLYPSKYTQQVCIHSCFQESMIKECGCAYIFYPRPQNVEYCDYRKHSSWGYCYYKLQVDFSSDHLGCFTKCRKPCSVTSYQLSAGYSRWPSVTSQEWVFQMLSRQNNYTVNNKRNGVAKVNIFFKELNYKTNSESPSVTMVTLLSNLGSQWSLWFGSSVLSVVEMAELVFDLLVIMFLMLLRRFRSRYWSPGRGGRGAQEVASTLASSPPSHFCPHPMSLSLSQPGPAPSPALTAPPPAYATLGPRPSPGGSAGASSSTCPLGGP
# T1 sequence (P51168 1-640): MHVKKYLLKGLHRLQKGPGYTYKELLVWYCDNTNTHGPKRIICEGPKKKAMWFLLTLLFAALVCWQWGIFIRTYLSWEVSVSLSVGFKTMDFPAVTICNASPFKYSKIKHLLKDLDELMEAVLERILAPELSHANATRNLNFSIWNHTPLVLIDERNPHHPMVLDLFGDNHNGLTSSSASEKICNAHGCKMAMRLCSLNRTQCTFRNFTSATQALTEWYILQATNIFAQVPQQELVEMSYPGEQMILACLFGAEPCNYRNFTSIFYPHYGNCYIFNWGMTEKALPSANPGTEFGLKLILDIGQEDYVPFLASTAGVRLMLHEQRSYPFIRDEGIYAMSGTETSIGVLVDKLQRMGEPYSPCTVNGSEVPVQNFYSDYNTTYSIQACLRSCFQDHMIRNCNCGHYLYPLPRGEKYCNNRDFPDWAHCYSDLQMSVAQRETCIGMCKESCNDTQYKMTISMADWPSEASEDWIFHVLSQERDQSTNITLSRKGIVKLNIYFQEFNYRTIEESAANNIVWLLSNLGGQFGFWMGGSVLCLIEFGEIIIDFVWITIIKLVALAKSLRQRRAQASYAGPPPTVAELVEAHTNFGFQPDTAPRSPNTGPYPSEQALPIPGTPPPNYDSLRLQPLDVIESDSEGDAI
# T1 sequence (P51170 1-649): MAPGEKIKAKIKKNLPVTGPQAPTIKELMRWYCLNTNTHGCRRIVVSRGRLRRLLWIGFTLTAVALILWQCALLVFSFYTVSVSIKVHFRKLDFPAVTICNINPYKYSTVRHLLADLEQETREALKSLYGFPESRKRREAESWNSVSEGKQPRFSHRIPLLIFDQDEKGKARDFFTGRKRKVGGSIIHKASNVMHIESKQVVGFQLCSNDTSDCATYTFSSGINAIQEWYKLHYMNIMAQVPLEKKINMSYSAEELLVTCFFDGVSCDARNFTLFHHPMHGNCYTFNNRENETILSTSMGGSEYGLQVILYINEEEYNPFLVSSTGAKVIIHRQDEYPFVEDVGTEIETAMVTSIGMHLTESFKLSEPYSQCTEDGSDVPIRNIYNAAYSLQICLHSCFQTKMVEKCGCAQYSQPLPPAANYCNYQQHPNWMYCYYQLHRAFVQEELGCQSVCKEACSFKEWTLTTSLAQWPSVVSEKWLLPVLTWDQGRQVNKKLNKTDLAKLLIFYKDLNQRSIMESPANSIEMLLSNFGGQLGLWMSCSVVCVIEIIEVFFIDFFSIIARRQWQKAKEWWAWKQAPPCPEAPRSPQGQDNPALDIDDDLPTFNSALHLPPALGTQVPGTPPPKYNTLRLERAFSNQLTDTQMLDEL
# Experiment: Short-circuit current in well-differentiated HBE cells, amiloride response
# Type: cell-based
# Conditions: 25 μM pretreatment
# Experimental: PAT1inh-B01 selectivity was studied by testing its effects on related SLC26A family anion transporters and the Cl^– channel TMEM16A. These measurements used a similar Cl^–/I^– exchange protocol, but FRT cells separately expressed each of the SLC26A family members or TMEM16A. […] PAT1inh-B01 selectivity was also tested by short-circuit current (Isc) in well-differentiated human bronchial epithelial (HBE) cells, which have a complex ion transport mechanism that includes cystic fibrosis transmembrane conductance regulator (CFTR), epithelial Na^+ channel (ENaC), and Ca^+2-activated chloride channels (CaCCs) ([13]). […] Potential PAT1inh-B01 cytotoxicity was studied in FRT cells.
# Figure 3 PAT1inh-B01 selectivity and cytotoxicity. […] Cl^–/I^– exchange or I^– influx measured in FRT cells coexpressing YFP and SLC26A isoforms or TMEM16A, with data shown for 25 μM PAT1inh-B01, DMSO vehicle control, and 500 μM niflumic acid (positive control for SLC26A transporters) or 10 μM TMinh-23 (positive control for TMEM16A). […] (C) (left) Short-circuit current (Isc) in well-differentiated HBE cells measured in the absence (top) and presence (bottom) of 25 μM PAT1inh-B01. […]
# YFP-based cellular assays of slc26a3, slc26a4, SLC26A9, and TMEM16A function were performed as described previously ([7]). […] The activities of ENaC, CFTR, and CaCC were determined using well-differentiated HBE cells as described previously ([13]). […]
smiles,measurement,value
Cc1c(Br)c(C(F)(F)F)nn1CC(=O)N1CCc2nc3cc(-c4ccccc4)[nH]n3c(=O)c2C1 [PAT1inh-B01],effect on ENaC activity (Isc response to amiloride),no significant effect

# — publication PMC8262356, “SLC26A6-selective inhibitor identified in a small-molecule screen blocks fluid absorption in small intestine” (JCI Insight, 2021)
